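96-well plates; 48 h exposure; 5 concentrations. Endpoints by linear interpolation between flanking doses. Not reached: highest tested concentration assigned. The concentration for 50% growth inhibition is given as GI50.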 Active and inactive are the calls of the source. Rule as the data show it: active = GI50 up to about 1.1 µM and inactive = higher.
What was measured:
Assay in all cases: growth of human tumour cells (NCI), 48 h
[1] = system: CAKI-1
[2] = system: CCRF-CEM
[3] = system: DLD-1
[4] = system: HCT-15
[5] = system: HT-29
[6] = system: KM-20L2
[7] = system: LXFL 529
[8] = system: M19-MEL
[9] = system: NCI-H522
[10] = system: SF-539
[11] = system: SNB-19
[12] = system: SNB-78
[13] = system: SW-620
[14] = system: DMS-114
[15] = system: HOP-92

SMILES | GI50 [1] | GI50 [2] | GI50 [3] | GI50 [4] | GI50 [5] | GI50 [6] | GI50 [7] | GI50 [8] | GI50 [9] | GI50 [10] | GI50 [11] | GI50 [12] | GI50 [13] | GI50 [14] | GI50 [15]
COC(=O)[C@]1(C)CCC[C@@]2(C)C1CCC1=CC3(C(C)C)CCC12OO3 (some centres not stated) | 80.5 µM (inactive) | 31.2 µM (inactive) | 50.1 µM (inactive) | 40 µM | 34.4 µM (inactive) | 94 µM (inactive) | 31.4 µM (inactive) | 32.2 µM (inactive) | 40.5 µM (inactive) | > 100 µM (inactive) | > 100 µM (inactive) | 51.3 µM (inactive) | > 100 µM (inactive) | – | –
NC(=O)c1cc([N+](=O)[O-])cc([N+](=O)[O-])c1 [NITROMIDE] | > 100 µM (inactive) | > 100 µM (inactive) | > 100 µM (inactive) | > 100 µM | > 100 µM (inactive) | > 100 µM (inactive) | > 100 µM (inactive) | 22.4 µM (inactive) | > 100 µM (inactive) | > 100 µM (inactive) | > 100 µM (inactive) | – | > 100 µM (inactive) | 38.5 µM (inactive) | > 100 µM (inactive)
CSc1ccc2c(cc1=O)[C@@H](NC(=O)c1cccc([N+](=O)[O-])c1)CCc1cc(O)c(O)c(O)c1-2 | 67.3 µM (inactive) | 34 µM (inactive) | 43.8 µM (inactive) | 36.3 µM | 37.8 µM (inactive) | 23 µM (inactive) | 35.8 µM (inactive) | 22.1 µM (inactive) | 12.6 µM (inactive) | 26.2 µM (inactive) | > 100 µM (inactive) | – | 23.5 µM (inactive) | 24.4 µM (inactive) | > 100 µM (inactive)
O=C1N=CN=C2C=CC(Cl)=C(I)C12 (configuration not stated) | 24.3 µM (inactive) | > 100 µM (inactive) | 58.5 µM (inactive) | – | > 100 µM (inactive) | > 100 µM (inactive) | > 100 µM (inactive) | > 100 µM (inactive) | – | – | 47.9 µM (inactive) | – | > 100 µM (inactive) | 84.7 µM (inactive) | –
COc1ccc(N2C(=O)[C@@H]3[C@H](C2=O)c2[nH]c4ccccc4c2C2CCC(C(C)(C)C)C[C@@H]23)cc1 (some centres not stated) | 27.7 µM (inactive) | 15.3 µM (inactive) | 37.7 µM (inactive) | > 90.4 µM | 29.2 µM (inactive) | 61.9 µM (inactive) | 39.4 µM (inactive) | 46.9 µM (inactive) | 18.5 µM (inactive) | 22.9 µM (inactive) | 22.1 µM (inactive) | 23.7 µM (inactive) | 35.2 µM (inactive) | – | –
CC(=O)NNc1nc(C)c(C(/C=C/c2ccc(Cl)cc2)=N\NS(=O)(=O)c2ccc(C)cc2)s1 | > 100 µM (inactive) | > 100 µM (inactive) | > 100 µM (inactive) | > 100 µM | > 100 µM (inactive) | > 100 µM (inactive) | > 100 µM (inactive) | > 100 µM (inactive) | > 100 µM (inactive) | > 100 µM (inactive) | > 100 µM (inactive) | > 100 µM (inactive) | > 100 µM (inactive) | – | > 100 µM (inactive)
Oc1cc(-c2ccccn2)nc2cc(F)ccc12 | – | – | 81.8 µM (inactive) | – | 49.1 µM (inactive) | > 100 µM (inactive) | > 100 µM (inactive) | 56.6 µM (inactive) | 25.8 µM (inactive) | 58.6 µM (inactive) | > 100 µM (inactive) | > 100 µM (inactive) | 36.6 µM (inactive) | – | 48.2 µM (inactive)
O=C(c1ccccc1)c1cccc(C(=O)c2ccccc2)c1 | > 100 µM (inactive) | 63.8 µM (inactive) | > 100 µM (inactive) | – | > 100 µM (inactive) | – | 74.1 µM (inactive) | > 100 µM (inactive) | > 100 µM (inactive) | > 100 µM (inactive) | > 100 µM (inactive) | > 100 µM (inactive) | > 100 µM (inactive) | 43.4 µM (inactive) | 53 µM (inactive)

Source: ChEMBL document CHEMBL1201862, “PubChem BioAssay data set” (2004)
